This data set can be described thus: gradient 5% acetonitrile 3 min, to 50% in 2 min, to 85% in 15 min, held 3 min, 100 µL/min. To be noted: column: Zorbax Extend-C18 2.1 x 50 mm; eluents: water / acetonitrile, 0.1% formic acid. The method in brief: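 Over 3 months, pure standards in mixtures of ~100 molecules were run by HPLC coupled to a quadrupole time-of-flight mass spectrometer in positive and negative ionization mode. The column was a Zorbax Extend-C18 (2.1 × 50 mm, 1.8 μm) at 100 μL/min, eluted with water and acetonitrile each holding 0.1% formic acid, with 40 μL dead and 900 μL dwell volumes. Retention time was determined from adduct peaks chosen by software and checked manually.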
As to `COc1ccc(-c2nc(C3CC(=O)N(c4ccc(C)cc4)C3)no2)c(C)c1` (stereo not given), the RP-LC retention time came to 1090 s.

`CCOC(=O)CC(=O)CSc1nc2ccsc2c(=O)n1Cc1ccc(F)cc1` yielded an RP-LC retention time of 903 s.

In the case of `CCc1nc(N2CCNCC2)c(C#N)c2c1COC(C)(C)C2`, the RP-LC retention time turned out to be 627 s.

Molecule `CCNC(=O)c1nc(-c2ccc(C)cc2)n2c1CCCCC2` gave an RP-LC retention time of 738 s.

For the molecule `Cc1sc2ccn(C)c(=O)c2c1C(=O)NCc1ccc(OC(C)C)cc1`, the RP-LC retention time worked out at 833 s.

The molecule `CN(C)c1cncnc1-n1cc(NC(=O)CCc2ccccc2)cn1` returned an RP-LC retention time of 624 s.

The molecule `CN(C)c1ccc(N2CCC(C(=O)NCCc3c[nH]c4ccccc34)CC2)nn1` yielded an RP-LC retention time of 621 s.

With `Nc1ccccc1NC(=O)CCCCCC(=O)Nc1ccccc1`, the RP-LC retention time was determined as 683 s.

`CCC(C)NC(=O)c1n[nH]c2c1CC(C)CC2` (stereo not given) had an RP-LC retention time of 777 s.

`COc1ccc(-c2nc(C3CC(=O)N(c4ccc(OC)c(OC)c4)C3)no2)c(C)c1` (stereo not given): the RP-LC retention time stood at 911 s.

`O=C(NC1CCCCC1)c1ccc(CN2CCN(C3CCCC3)C(=O)C2=O)cc1` displayed an RP-LC retention time of 831 s.

For `Cc1ccc(C)c(N2CCN(c3ccnc(SCC(=O)NCCC(C)C)n3)CC2)c1`, the RP-LC retention time amounted to 920 s.

Molecule `CC(C)(C)NC(=O)CN1CCC(c2nc(-c3ccc(F)cc3)no2)CC1` returned an RP-LC retention time of 675 s.

In turn, `CCC(C)N(CCNC(=O)Cc1noc2ccc(C)cc12)Cc1ccco1` (stereo not given) gave an RP-LC retention time of 682 s.

Turning to `COC(=O)c1cnc2nc(C)ccc2c1Nc1ccc(OC)c(OC)c1`, the RP-LC retention time was found to be 630 s.

Consider `O=S(=O)(c1ccccc1)N1CCC(n2cnnc2-c2ccccc2)CC1`, for which the RP-LC retention time came out at 749 s.

Regarding `CCCn1cc(C(=O)N2CCCc3ccccc32)c2nn(-c3ccccc3)c(=O)c-2c1`, the RP-LC retention time worked out at 836 s.

In turn, `CCn1c(=O)c2ccccc2n(Cc2nc(-c3cccc(OC)c3)no2)c1=O` registered an RP-LC retention time of 992 s.

Take `CCc1cccc(NC(=O)C2CCCN(c3ncnc4c3nc3n4CCCCC3)C2)c1` (stereo not given): the RP-LC retention time was found to be 758 s.

In turn, `Cc1ccc(C)c(S(=O)(=O)N2CC(N(C(=O)NC(C)C)C3CCOCC3)C2)c1` returned an RP-LC retention time of 689 s.

Take `CCn1cnc(S(=O)(=O)N2CCCC(C(=O)NCc3ccc(C)cc3)C2)c1` (stereo not given): the RP-LC retention time came out at 803 s.

Turning to `CCOc1cc(=O)n2c(c1C(=O)NCc1ccc3c(c1)OCO3)CCCC2`, the RP-LC retention time was found to be 707 s.

The molecule `CCOC(=O)CCc1c(C)nn(-c2cc(N3CCCC3)ncn2)c1C` had an RP-LC retention time of 868 s.

On to `Cc1ccc(S(=O)(=O)NCCn2c(C)cnc2C2CCC2)c(C)c1`, for which the RP-LC retention time worked out at 675 s.

In the case of `c1ccc(-c2nnc(-c3ccccc3)nn2)cc1`, the RP-LC retention time was determined as 1220 s.

In turn, `CC(C)c1ccc(NC(=O)CC2COc3ccccc3NC2=O)cc1` (stereo not given) gave an RP-LC retention time of 872 s.

Take `COc1ccc(NC(=O)Cn2c(C)cc(-c3nnc(-c4ccccc4)o3)c2C)cc1F`: the RP-LC retention time came to 943 s.

`CCOC(=O)C1CCC(CNC(=O)Nc2ccc(-c3nc(-c4cc(C)ccc4C)co3)cc2)CC1` (stereo not given): the RP-LC retention time was found to be 1260 s.

Take `Cc1ccc2c(c1)C(=O)NC1(CCN(C(=O)NCCc3ccccc3)CC1)N2C`: the RP-LC retention time turned out to be 755 s.

In the case of `CC(=O)Nc1cccc(-c2nc(-c3ccc4c(c3)nnn4C3CCCC3)no2)c1`, the RP-LC retention time came to 1010 s.

`COc1ccc(N2CCN(c3cc(SCC(=O)Nc4ccc(F)cc4F)ncn3)CC2)cc1` had an RP-LC retention time of 1050 s.

`CC1Cc2ccccc2N1S(=O)(=O)c1cc2c3c(c1)CCC(=O)N3CCC2` (stereo not given) displayed an RP-LC retention time of 961 s.

`COc1cccc(CNC(=O)CN2CCN(Cc3ccc(F)cc3)C2=O)c1OC` returned an RP-LC retention time of 772 s.

The molecule `Clc1ccc2nc(-c3cccc(Br)c3)c(Nc3ccc4c(c3)OCCO4)n2c1` registered an RP-LC retention time of 972 s.

With `CCn1c(C(=O)NC(C)CCc2ccccc2)cc2sccc21` (stereo not given), the RP-LC retention time came out at 1110 s.

On to `CCCN(C)C(=O)CCC1CCN(c2cc(NCC)ncn2)CC1`, for which the RP-LC retention time is 571 s.

As to `COc1ccc(Cl)cc1S(=O)(=O)N1C[C@@H]2C[C@H]1C[C@@H]2NC(=O)c1ccccc1`, the RP-LC retention time is 873 s.

On to `COc1ccc(CNC(=O)C2(c3ccc(NC(C)=O)cc3)CCCCC2)c(OC)c1`, for which the RP-LC retention time amounted to 841 s.

With `O=C(Nc1ccc(Cl)cc1)C1CCCN(c2nc3ccccc3nc2C(F)(F)F)C1` (stereo not given), the RP-LC retention time was determined as 1290 s.

In turn, `COc1cc(Nc2cc(C(=O)N3CCC(C)CC3)nc3ccc(C)cc23)cc(OC)c1OC` had an RP-LC retention time of 703 s.

In turn, `CCCC(NC(=O)Cc1ccc(C)cc1)C(=O)Nc1nc2ccccc2[nH]1` (stereo not given) returned an RP-LC retention time of 722 s.

Consider `Cc1cc(Cl)ccc1OCc1nc(-c2ccc3c(c2)ncn3CCC(=O)N2CCCCC2)no1`, for which the RP-LC retention time stood at 956 s.

For `Fc1ccc(C(c2nnc(-c3ccccc3Cl)o2)N2CCN(c3ccccn3)CC2)cc1` (stereo not given), the RP-LC retention time came out at 774 s.

As to `CN1CCN(CCCNC(=O)CCCn2c(=O)c3cccn3c3ccc(F)cc32)CC1`, the RP-LC retention time came out at 582 s.

For the molecule `Cc1cccc(Cn2c(C)c(CNCc3ccco3)c(C(=O)O)c2C)c1`, the RP-LC retention time turned out to be 697 s.

Turning to `CCN1C(=O)C(C)(C(=O)Nc2ccc(C(=O)OC)cc2)Oc2cccnc21` (stereo not given), the RP-LC retention time is 861 s.

Turning to `O=C(Nc1ccc(N2CCOCC2)cc1)c1cn2c(n1)CSCC2`, the RP-LC retention time worked out at 600 s.

The molecule `CCCS(=O)(=O)N1CCOc2ccc(NC(=O)C3CC3)cc2C1` gave an RP-LC retention time of 754 s.

In turn, `Cc1ccnc(N2CCCC(C(=O)NCC3CCN(Cc4ccccc4C)CC3)C2)n1` (stereo not given) yielded an RP-LC retention time of 596 s.

Molecule `COc1ccc(NC(=O)C2CCc3nc(N4CCOCC4)ncc3C2)cc1C(F)(F)F` (stereo not given) displayed an RP-LC retention time of 858 s.

Turning to `Cc1ccc(N(C)C(=O)C2CCCN(S(=O)(=O)c3cc(-c4noc(C)n4)cs3)C2)cc1` (stereo not given), the RP-LC retention time was found to be 992 s.

On to `CC(C)CCN1CCc2[nH]nc(C(=O)N(C)C)c2C1`, for which the RP-LC retention time came out at 575 s.

In turn, `O=c1cc(-c2cccnc2)oc2c1ccc1ccccc12` returned an RP-LC retention time of 979 s.

As to `Cn1nc(C(=O)N2CCCC(C(=O)N3CCCC3)C2)c2c1CCN(C(=O)c1ccccc1F)C2` (stereo not given), the RP-LC retention time is 658 s.

On to `CCCn1c(CCC(=O)Nc2ccc3c(c2)OCCO3)nc2cccnc21`, for which the RP-LC retention time was determined as 662 s.

In the case of `O=C(NCc1nc(-c2ccc(Oc3ccc(Cl)cc3)cc2)no1)c1ccco1`, the RP-LC retention time was determined as 987 s.

For `CCCCn1cc(S(=O)(=O)NCc2ccccc2Cl)c2cccnc21`, the RP-LC retention time stood at 996 s.

In turn, `Cc1ccc(-c2nnc(-c3ccccc3Cl)o2)cc1S(=O)(=O)N1CCCC1` yielded an RP-LC retention time of 1090 s.

On to `CC1=NS(=O)(=O)N(C)C=C1C(=O)OCc1noc(-c2ccccc2C)n1`, for which the RP-LC retention time was found to be 987 s.

Regarding `O=C(NC1CCCC1)N1CCN(c2ncccc2-c2nnc(C3CC3)o2)CC1`, the RP-LC retention time turned out to be 719 s.

The values are drawn from the METLIN SMRT retention time set (Domingo-Almenara et al. 2019).
